Counter-ions that a name gives are not always drawn. Like-named read-outs stand apart in the source and are kept apart here.
Test system: Ralstonia solanacearum (race 1, biovar 1; tomato strain Rs5)
Details: 72 h; for Number of colonies: mean ± standard error (n = 6)

[H]/N=C(/N)N[C@H]1[C@H](O)[C@@H](O)[C@H](O[C@@H]2O[C@@H](C)[C@](O)(C=O)[C@H]2O[C@@H]2O[C@@H](CO)[C@H](O)[C@@H](O)[C@@H]2NC)[C@@H](N/C(N)=N\[H])[C@@H]1O [Streptomycin, streptomycin sulfate]
Mortality (%) (200 mg kg^−1 soil): 0.9% | Number of colonies (200 mg kg^−1 soil): 256000 ± 16500 | Mortality (%) (400 mg kg^−1 soil): 11.9% | Number of colonies (400 mg kg^−1 soil): 227000 ± 78100 | Mortality (%) (800 mg kg^−1 soil): 21.6% | Mortality (%) (800 mg kg^−1 soil, listed as streptomycin): 21% | Number of colonies (800 mg kg^−1 soil): 204000 ± 82900 | Mortality (%) (1500 mg kg^−1 soil): 75.3% | Number of colonies (1500 mg kg^−1 soil): 63800 ± 42300
